# Test results published in publication PMC8770261, “Automatic Production and Preliminary PET Imaging of a New Imaging Agent [^18F]AlF-FAPT” (Frontiers in Oncology, 2022).
# Assay: Biological distribution in normal Kunming mice (γ counter, %ID/g)
# Format: in vivo
# Settings: tail vein injection, 60 min
# Protocol: The biological distribution experiment of [^18F]AlF-FAPT was carried out in normal Kunming mice. Twenty Kunming mice were randomly and equally divided into four groups and each injected with 0.1 ml of [^18F]AlF-FAPT (1.48~2.22 MBq) through their tail vein. The mice were then sacrificed after 5, 30, 60, and 90 minutes, followed by weighing their organs and determining the radioactivity using a γ counter. The radioactivity of each organ was normalized using the percentage of injected dose per gram of tissue (% ID/g). [^18F]FAPI-42 also used the same method mentioned above to carry out the biological distribution at the time point of 60 minutes.
smiles,measurement,value
N#C[C@@H]1CC(F)(F)CN1C(=O)CNC(=O)c1ccnc2ccc(OCCCN3CCN(C(=O)CN4CCN5CCN(CC4)CC(=O)[O][Al]([F])[O]C(=O)C5)CC3)cc12 [[^18F]FAPI-42],radioactivity uptake value in the gallbladder,7.30 ± 1.43 %ID/g
